According to paper PMC10762035, “Molecular basis of human trace amine-associated receptor 1 activation” (Nature Communications, 2024):
Where “and” joins values, the source holds several entries; their conditions need not be identical. Equal entries are not always repeated. Structures can show the parent of a compound that is named as a salt.

How the values were obtained:
hTA1 [1] = molecular target: T1, hTA1 (Homo sapiens, UniProt Q96RJ0); assay: Screen of 89 aminergic compounds at 10 µM, cAMP accumulation in HEK293T cells; type: cell-based; details: quadruplicate values; screen at 10 µM;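 also: HEK293T cells co-transfected with hTA1 and GloSensor cAMP reporter, cAMP accumulation detected by luminescence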
T1 construct: expressed in transfected cells; host or cells: HEK293T
T1 sequence (Q96RJ0 1-339): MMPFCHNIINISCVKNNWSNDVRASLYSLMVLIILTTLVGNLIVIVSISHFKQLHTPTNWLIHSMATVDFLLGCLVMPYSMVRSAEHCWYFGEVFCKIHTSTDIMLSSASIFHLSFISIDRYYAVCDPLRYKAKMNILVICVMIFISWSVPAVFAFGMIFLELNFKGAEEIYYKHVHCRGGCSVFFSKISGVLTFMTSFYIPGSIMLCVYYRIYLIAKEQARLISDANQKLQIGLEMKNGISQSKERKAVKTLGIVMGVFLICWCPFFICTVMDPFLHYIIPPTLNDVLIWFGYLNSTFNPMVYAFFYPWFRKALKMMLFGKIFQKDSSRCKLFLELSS

hTA1 [2] = molecular target: T1, hTA1; assay: GloSensor cAMP accumulation assay, concentration response, wild-type hTA1 in transfected HEK293T cells; type: cell-based; details: log[Compound], replicate wells;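 also: luminescence read after 30 min compound exposure at room temperature in cells preloaded with D-Luciferin, reflecting Gs-driven cAMP rise, efficacy scaled to the maximal β-PEA response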

## CCN(CC)C(=O)[C@@H]1C=C2c3cccc4[nH]c(Br)c(c34)C[C@H]2N(C)C1 [2-Br LSD]
hTA1 [1]
  Luminescence for Screening Data: 10.4 and 10.1 and 9.5 and 7.6

## CCCCCCCCCOc1ccc2[nH]cc(CCN)c2c1 [5-nonyloxytryptamine]
hTA1 [1]
  Luminescence for Screening Data: 10.6 and 10.3 and 13.3 and 10.2

## NCCc1c[nH]c2ccc(O)cc12 [5HT]
hTA1 [2]; M = -5
  Normalized Luminescence Counts for WT hTA1: 22.7551 and 23.5409 and 27.4699 and 21.1146 and 16.9666 and 15.5049
hTA1 [2]; M = -5.522
  Normalized Luminescence Counts for WT hTA1: 12.7034 and 13.2601 and 13.0636 and 11.1989 and 10.4878 and 9.8162
hTA1 [2]; M = -6
  Normalized Luminescence Counts for WT hTA1: 16.6652 and 17.3528 and 14.4388 and 9.54 and 6.932 and 6.5768
hTA1 [2]; M = -6.522
  Normalized Luminescence Counts for WT hTA1: 9.953 and 14.2096 and 13.2928 and 9.698 and 6.261 and 7.564
hTA1 [2]; M = -7
  Normalized Luminescence Counts for WT hTA1: 9.7567 and 9.593 and 11.8194 and 6.3 and 5.55 and 6.814
hTA1 [2]; M = -7.522
  Normalized Luminescence Counts for WT hTA1: 9.298 and 11.492 and 8.12 and 4.167 and 4.444 and 4.799
hTA1 [2]; M = -8
  Normalized Luminescence Counts for WT hTA1: 9.298 and 7.236 and 9.822 and 3.732 and 3.653 and 4.048
hTA1 [2]; M = -8.522
  Normalized Luminescence Counts for WT hTA1: 4.387 and 5.369 and 8.578 and 1.7177 and 3.258 and 2.5868
hTA1 [2]; M = -9
  Normalized Luminescence Counts for WT hTA1: 3.339 and 1.604 and 3.176 and 2.073 and 0.9671 and 0.7301
hTA1 [2]; M = -9.522
  Normalized Luminescence Counts for WT hTA1: 0.589 and 1.473 and 1.408 and 0.01898 and -0.2575 and -0.4946
hTA1 [2]; M = -10
  Normalized Luminescence Counts for WT hTA1: 1.702 and 0.2289 and 0.1307 and -0.9291 and -0.09953 and -0.2971
hTA1 [2]; M = -10.522
  Normalized Luminescence Counts for WT hTA1: 0.6218 and 0.8182 and -0.295 and -1.285 and -0.7316 and -1.364
hTA1 [2]; M = -11
  Normalized Luminescence Counts for WT hTA1: -0.2622 (2×) and -0.5897 and 0.335 and 0.177 and -0.02052
hTA1 [2]; M = -11.522
  Normalized Luminescence Counts for WT hTA1: 0.06517 and 0.3926 and -0.09854 and -0.1785 (2×) and 0.09799
hTA1 [2]; M = -12
  Normalized Luminescence Counts for WT hTA1: 0.1307 and 0.5563 and -0.6551 and -0.6131 and 0.256 and 0.2955
hTA1 [2]; M = -12.522
  Normalized Luminescence Counts for WT hTA1: -0.2295 and 0.1307 and -0.1313 and 0.6906 and 0.8486 and -0.6921

## Cc1nn(C)c(C)c1-c1cccc2c1CC[C@H](N(C)C)C2 [AS19]
hTA1 [1]
  Luminescence for Screening Data: 9.8 and 9.9 and 8 and 6.8

## CN(C)c1ccc(/C=C/c2cc[n+](C)cc2)cc1.[I-] [ASP-iodide]
hTA1 [1]
  Luminescence for Screening Data: 6.9 and 6.2 and 4.9 and 4.4

## C=CCc1ccccc1OCC(O)CNC(C)C (stereo not shown) [Alprenolol]
hTA1 [1]
  Luminescence for Screening Data: 10.1 and 8.4 and 7.8 and 6.7

## Cl.O=C(c1ccc(F)cc1)C1CCN(CCn2c(=S)[nH]c3ccccc3c2=O)CC1 [Altanserin hydrochloride hydra]
hTA1 [1]
  Luminescence for Screening Data: 9.1 and 6 and 8.8 and 5.9

## N=C(N)NC(=O)c1nc(Cl)c(N)nc1N [Amiloride]
hTA1 [1]
  Luminescence for Screening Data: 9.5 and 8.8 and 7 and 8.1

## CCN1CCCC1CNC(=O)c1cc(S(=O)(=O)CC)c(N)cc1OC (stereo not shown) [Amisulpride]
hTA1 [1]
  Luminescence for Screening Data: 8 and 6.7 and 8.1 and 7

## O=C1CCc2ccc(OCCCCN3CCN(c4cccc(Cl)c4Cl)CC3)cc2N1 [Aripiprazole]
hTA1 [1]
  Luminescence for Screening Data: 3.9 and 3.4 and 5.3 and 4.7

## CN1CC2c3ccccc3Oc3ccc(Cl)cc3C2C1 (stereo not shown) [Asenapine maleate]
hTA1 [1]
  Luminescence for Screening Data: 139.1 and 129.2 and 126.2 and 110.4

## NCCc1ccccc1 [B-PEA]
hTA1 [1]
  Luminescence for Screening Data: 160.4 and 164.2 and 180.4 and 167

## CN1CCC(c2c[nH]c3ccc(O)cc23)CC1 [BRL 54443]
hTA1 [1]
  Luminescence for Screening Data: 10 and 7.1 and 8.1 and 6.4

## C=CCN1C[C@H](C(=O)N(CCCN(C)C)C(=O)NCC)C[C@@H]2c3cccc4[nH]cc(c34)C[C@H]21 [Cabergoline]
hTA1 [1]
  Luminescence for Screening Data: 7.4 and 6.2 and 7 and 5.7

## CN/C(=N/CCSCc1nc[nH]c1C)NC#N [Cimetidine]
hTA1 [1]
  Luminescence for Screening Data: 8.3 and 6.6 and 8.6 and 5.4

## N.N.[Cl][Pt][Cl] [Cisplatin]
hTA1 [1]
  Luminescence for Screening Data: 5.8 and 6.4 and 6.9 and 6.2

## CN(C)CCCC1(c2ccc(F)cc2)OCc2cc(C#N)ccc21 (stereo not shown) [Citalopram hydrobromide]
hTA1 [1]
  Luminescence for Screening Data: 6.1 and 6.2 and 7.2 and 6.9

## Cl.O=C1Nc2ccc(Cl)c3c2C1(CCCCN1CC=C(c2ccc(Cl)cc2)CC1)CCC3 (stereo not shown) [DR4485 hydrochloride]
hTA1 [1]
  Luminescence for Screening Data: 5.6 and 5.7 and 6.4 and 4.9

## CNCCCN1c2ccccc2CCc2ccccc21 [Desipramine]
hTA1 [1]
  Luminescence for Screening Data: 6 and 6.2 and 5.6 and 6.1

## CC(C)[C@@]1(NC(=O)[C@@H]2C[C@@H]3c4cccc5[nH]cc(c45)C[C@H]3N(C)C2)O[C@@]2(O)[C@@H]3CCCN3C(=O)[C@H](Cc3ccccc3)N2C1=O [Dihydroergocristine mesylate]
hTA1 [1]
  Luminescence for Screening Data: 5.9 and 6.4 and 5.1 and 5.2

## CC[C@@H](CO)NC(=O)[C@@H]1C=C2c3cccc4[nH]cc(c34)C[C@H]2N(C)C1 [Methylergonovine]
hTA1 [2]; M = -5
  Normalized Luminescence Counts for WT hTA1: 45.3336 and 42.9514 and 53.7117 and 43.7792 and 37.0624 and 36.5834
hTA1 [2]; M = -5.522
  Normalized Luminescence Counts for WT hTA1: 17.8708 and 18.4864 and 21.6449 and 29.4218 and 29.3534 and 29.1139
hTA1 [2]; M = -6
  Normalized Luminescence Counts for WT hTA1: 12.9992 and 11.3664 and 9.546 and 15.3039 and 15.0416 and 13.8556
hTA1 [2]; M = -6.522
  Normalized Luminescence Counts for WT hTA1: 6.093 and 6.147 and 6.254 and 7.082 and 6.8879 and 7.207
hTA1 [2]; M = -7
  Normalized Luminescence Counts for WT hTA1: 4.514 and 3.604 and 5.103 and 3.125 and 3.353 and 3.387
hTA1 [2]; M = -7.522
  Normalized Luminescence Counts for WT hTA1: 2.5066 and 3.845 and 3.203 and 2.03 and 1.87 and 2.201
hTA1 [2]; M = -8
  Normalized Luminescence Counts for WT hTA1: 2.5869 and 2.4263 and 1.489 and 1.2088 and 1.368 and 1.722
hTA1 [2]; M = -8.522
  Normalized Luminescence Counts for WT hTA1: 1.65 and 1.864 and 0.9274 and 1.414 and 1.14 and 1.916
hTA1 [2]; M = -9
  Normalized Luminescence Counts for WT hTA1: 0.3385 and 0.4991 and -0.009489 and 1.152 and 1.026 and 0.8895
hTA1 [2]; M = -9.522
  Normalized Luminescence Counts for WT hTA1: -0.06302 and -0.3842 and -0.8125 and 0.7184 and 0.4676 and 0.4447
hTA1 [2]; M = -10
  Normalized Luminescence Counts for WT hTA1: -0.08979 and -0.3039 and -0.2504 and 0.2509 and 0.1026 and 0.2167
hTA1 [2]; M = -10.522
  Normalized Luminescence Counts for WT hTA1: -0.3039 and -0.4645 and -0.2236 and 0.05702 and 0.03421 and -0.1026
hTA1 [2]; M = -11
  Normalized Luminescence Counts for WT hTA1: 0.09758 and -0.2772 and 0.4723 and 0.1825 and -0.1939 and 0
hTA1 [2]; M = -11.522
  Normalized Luminescence Counts for WT hTA1: 0.4188 and 0.74 and 0.6597 and 0.2395 and 0.7298 and 0.3877
hTA1 [2]; M = -12
  Normalized Luminescence Counts for WT hTA1: 0.5794 and 0.8471 and 0.74 and 0.3079 and 0.2281 and 0.479
hTA1 [2]; M = -12.522
  Normalized Luminescence Counts for WT hTA1: -0.4378 and 0.6865 and 0.7668 and 0.6272 and 0.479 and 0.1026

## NCCc1ccccc1 [bPEA]
hTA1 [2]; M = -5
  Normalized Luminescence Counts for WT hTA1: 114.55 and 104.58 and 118.623 and 102.53 and 95.7683 and 107.085
hTA1 [2]; M = -5.522
  Normalized Luminescence Counts for WT hTA1: 96.3904 and 87.8446 and 97.5922 and 98.0692 and 90.9789 and 92.0588
hTA1 [2]; M = -6
  Normalized Luminescence Counts for WT hTA1: 88.2006 and 75.1148 and 94.0536 and 103.14 and 88.8658 and 89.805
hTA1 [2]; M = -6.522
  Normalized Luminescence Counts for WT hTA1: 73.7573 and 64.299 and 91.1383 and 74.7791 and 68.7219 and 73.7461
hTA1 [2]; M = -7
  Normalized Luminescence Counts for WT hTA1: 70.4636 and 45.5827 and 61.4726 and 66.5619 and 44.258 and 53.6961
hTA1 [2]; M = -7.522
  Normalized Luminescence Counts for WT hTA1: 36.1467 and 21.3027 and 35.9464 and 26.7905 and 17.9158 and 22.3766
hTA1 [2]; M = -8
  Normalized Luminescence Counts for WT hTA1: 22.727 and 16.7405 and 21.3472 and 13.3611 and 11.9525 and 11.6238
hTA1 [2]; M = -8.522
  Normalized Luminescence Counts for WT hTA1: 4.5 and 4.523 and 5.969 and 4.393 and 2.514 and 2.6083
hTA1 [2]; M = -9
  Normalized Luminescence Counts for WT hTA1: 1.986 and 1.318 and 1.8743 and 1.716 and 1.012 and 1.106
hTA1 [2]; M = -9.522
  Normalized Luminescence Counts for WT hTA1: -1.063 and -1.33 and -0.4402 and -0.06817 and 0.1666 and -0.4908
hTA1 [2]; M = -10
  Normalized Luminescence Counts for WT hTA1: -0.596 and -1.264 and -0.5515 and -0.4438 and -0.7725 and -0.6786
hTA1 [2]; M = -10.522
  Normalized Luminescence Counts for WT hTA1: -1.3749 and -1.931 and -0.6405 and 0.0727 and -0.5847 and -1.101
hTA1 [2]; M = -11
  Normalized Luminescence Counts for WT hTA1: -0.1286 and -1.241 and 0.2497 and 0.6362 and -0.3499 and -0.7725
hTA1 [2]; M = -11.522
  Normalized Luminescence Counts for WT hTA1: -0.01735 and -1.575 and -0.7963 and 0.5892 and -0.3969 and -0.256
hTA1 [2]; M = -12
  Normalized Luminescence Counts for WT hTA1: -1.353 and -1.3749 and -1.286 and 0.02574 and -0.4908 and -0.3029
hTA1 [2]; M = -12.522
  Normalized Luminescence Counts for WT hTA1: -1.152 and -1.664 and -0.9075 and 0.5892 (2×) and 0.4483
